Assay results published in a melting point compilation (Tetko et al.; mined from patent text by program, amines drawn as free bases though some values may be those of a salt).

| melting point [°C] | SMILES |
| --- | --- |
| 226 to 227 | O=C(O)Cc1c(-c2ccccc2)c2cc3c(cc2oc1=O)C(=O)OC3 |
| 60 to 62 | CCOC(=O)c1cc2c(cc1OCC)C(=O)C=CC2=O |
| > 250 | O=C(NCc1ccn(C2=CC3=C(CC2)CCc2[nH]c(=O)c(=O)n(O)c23)c1)Nc1ccccc1 |
| 150 to 152 | CN(C)C(=S)Nc1ccccc1N1CCOCC1 |
| 166 | CC(C)(C)CC(C)(C)c1cc(Cc2cc(C(C)(C)C)cc(-n3nc4ccccc4n3)c2O)c(O)c(C(C)(C)CC(C)(C)C)c1 |
| 144 | CC1CCC(C(C)C)C(OC(=O)N2CC(=O)N(C)c3ccc(Cl)cc3C2c2ccccc2)C1 (stereo not given) |
| 110 to 114 | COCCOc1ccc(CCCNS(=O)(=O)c2cccc(Cl)c2)c(Oc2ncc(C(F)(F)F)cc2Cl)c1 |
| 116 to 117 | COc1ccc2c(ccn2CC(=O)c2ccccc2Br)n1 |
| 175 | O=C(NCC(O)(Cn1cncn1)c1ccc(Cl)cc1Cl)c1cccnc1 (stereo not given) |
| 209 to 211 | C=Cc1c(N)cc(-c2ccc(Cl)c(OC)c2F)nc1C(=O)O |
| 155 to 156 | O=C(O)COc1ccc(C(=O)c2cccc(Cl)c2)c(Cl)c1Cl |
| 140 | Cc1noc(-c2cccc(Oc3ccc4c(c3)S(=O)(=O)NCCO4)c2)n1 |
| 85 to 86 | COc1ccc(COc2c(C)c(C)c3c(c2C)CC2(CCN(Cc4ccccc4)CC2)O3)cc1 |
| 218 to 220 | COc1cc(OCc2ccccn2)ccc1/C=C/c1cc(/C=C/c2ccc3c(c2)OCO3)n[nH]1 |
| 193 to 194 | N=C(N)Nc1nc(CSCCC(N)=O)cs1 |
| 148 to 150 | COc1ccc(CCNC(=O)C(=O)NCc2ccc([N+](=O)[O-])cc2)cc1OC1CCCC1 |
| 249 to 252 | Nc1ncnc2c1ncn2CC(=O)Nc1ccc(-n2nc(C(F)(F)F)cc2C2CC2)cc1 |
| 294 to 300 | N#Cc1ccc2nc[nH]c(=O)c2c1 |
| 113 to 115 | COc1ccc2cccc(C(CCO)CNC(=O)C3CCC3)c2c1 (stereo not given) |

| melting point [°C] | SMILES |
| --- | --- |
| 115 to 117 | O=c1[nH]c2cccc(OCC(O)CNCCc3ccc(-n4c(CCC5CCCC5)nc5cccnc54)cc3)c2[nH]1 (stereo not given) |
| 138 to 139 | CN1CCc2cc(OC[C@H]3CO[C@](Cn4ccnc4)(c4ccc(Cl)cc4Cl)O3)ccc2C12CCSCC2 (racemic) |
| 177 to 179 | COCc1nnc(N)s1 |
| 165 | CC(C)(C)NCC(O)COc1ccc2c(=O)cc(-c3ccc(O)c(O)c3)oc2c1 (stereo not given) |
| 104 to 108 | COC(=O)c1ccc(CCC(C)NCC(O)c2cc3ccccc3o2)cc1 (stereo not given) |
| 187 to 188 | O=C(O)Cc1ccc([N+](=O)[O-])cc1CC(=O)O |
| 72 to 73 | COCc1cc2ccccc2oc1=O |
| 70 to 72 | COC(=O)c1ccc(OCCCC2Cc3c(c(OC)c(OC)c(OC)c3OC)C2)cc1 |
| 142 to 144 | Cc1ccc(N2CCCCC2)c(NC(=O)c2ccncc2)c1 |
| 94 to 97 | COC(=O)C1CSc2sccc2C1=O (stereo not given) |
| 205 to 206 | O=S1(=O)N=CN(C2CC2)c2cc(Cl)c(F)cc21 |
| 148 to 151 | COc1ccc(C=Cc2nc(CCl)co2)cc1 |
| 134 to 136 | COc1cccc(C=Cc2nc3c(s2)N(S(C)(=O)=O)CCC3)c1OC |
| 148 to 150 | CC(=NO)c1nn(C)c2cc(Oc3ccc(Cl)cc3)ccc12 |
| 185 to 195 | COc1cc(/C=C/C(=O)Oc2ccc(NC(C)=O)cc2)ccc1O |
| 174 | O=C(O)/C(=C\c1cc(-c2ccc3c(c2)OCO3)n(-c2cc(Cl)ccc2Cl)n1)c1cccc(Cl)c1 |
| 281 | O=C(O)CCC(=O)c1ccc2[nH]c3nc(Cl)ccc3c2c1 |
| > 200 | CSc1nc(NN)c(C#N)c(N2CCc3ccccc3CC2)n1 |
| 115 to 117 | O=c1c(CO)cc(-c2ccc3c(c2)CCO3)nn1CC1CC1 |

| SMILES | melting point [°C] |
| --- | --- |
| COc1cc(C=C[N+](=O)[O-])cc(OC)c1OC | 116 to 118 |
| COc1ccc(-c2nc(OC(=O)N(C)C)nn2-c2ccc(OC)cc2)cc1 | 121 to 123 |
